Data set [1] has as its system Agropyrons repens. Briefly: Weed plant herbicidal activity, pre-emergence. Format: in vivo. Conditions: 20 g of active substance per hectare, visual scoring after 3 to 4 weeks. An excerpt: (§1) 1. Weed plant herbicidal activity and crop plant tolerance, pre-emergence Seeds of monocot and dicot weed plants and of crop plants are placed in sandy loam soil in cardboard pots and are covered with soil. The compounds of the invention, formulated as wettable powders or emulsifiable concentrates, are then applied as an aqueous suspension or emulsion, respectively, in different dosages to the surface of the covering soil at an application rate of 600 to 800 l of water per ha (converted). Following treatment, the pots are placed in a greenhouse and kept under good growth conditions for the weeds. Visual scoring of the plant damage or emergence damage is made after the experimental plants have emerged, after an experimental period of 3 to 4 weeks, in comparison with untreated controls. […] At the same application rate this compound of the invention causes no damage to the crop plants Oryza sativa (rice) or Zea mays (maize).

In data set [2] the test system is Alopecurus myosuroides. Briefly: Weed plant herbicidal activity, pre-emergence. Format: in vivo. The conditions noted are these: 20 g of active substance per hectare, visual scoring after 3 to 4 weeks.
Source text: as §1

Data set [3] relates to Amaranthus retroflexus. Briefly: Weed plant herbicidal activity, pre-emergence. In kind it is in vivo. Conditions: 20 g of active substance per hectare, visual scoring after 3 to 4 weeks.
Source text: as §1

Data set [4] concerns Avena fatua. Briefly: Weed plant herbicidal activity, pre-emergence. Conditions: 20 g of active substance per hectare, visual scoring after 3 to 4 weeks. Format: in vivo.
Source text: as §1

For data set [5], the system named is Digitaria sanguinalis. The data set can be described thus: Weed plant herbicidal activity, pre-emergence. Conditions: 20 g of active substance per hectare, visual scoring after 3 to 4 weeks. In kind it is in vivo.
Source text: as §1

The test system of data set [6] is Galium aparine. The data set can be described thus: Weed plant herbicidal activity, pre-emergence. The conditions noted are these: 20 g of active substance per hectare, visual scoring after 3 to 4 weeks. Format: in vivo.
Source text: as §1

The test system of data set [7] is Lolium multiflorum. Briefly: Weed plant herbicidal activity, pre-emergence. Format: in vivo. The conditions noted are these: 20 g of active substance per hectare, visual scoring after 3 to 4 weeks.
Source text: as §1

For data set [8], the system named is Setaria viridis. Briefly: Weed plant herbicidal activity, pre-emergence. In kind it is in vivo. The conditions noted are these: 20 g of active substance per hectare, visual scoring after 3 to 4 weeks.
Source text: as §1

Data set [9] has as its system Sorghum halepense. Briefly: Weed plant herbicidal activity, pre-emergence. Format: in vivo. Conditions: 20 g of active substance per hectare, visual scoring after 3 to 4 weeks.
Source text: as §1

For data set [10], the system named is Veronica persica. The data set can be described thus: Weed plant herbicidal activity, pre-emergence. Conditions: 20 g of active substance per hectare, visual scoring after 3 to 4 weeks. In kind it is in vivo.
Source text: as §1

For data set [11], the system named is Oryza sativa (rice). Briefly: Crop plant tolerance, pre-emergence. Format: in vivo. Conditions: 20 g of active substance per hectare, 3 to 4 weeks.
Source text: as §1

In data set [12] the test system is Zea mays (maize). The data set can be described thus: Crop plant tolerance, pre-emergence. The conditions noted are these: 20 g of active substance per hectare, 3 to 4 weeks. In kind it is in vivo.
Source text: as §1

Data set [13] relates to Chenopodium album. Briefly: Weed plant herbicidal activity, post-emergence. The conditions noted are these: three-leaf stage, 80 g of active substance per hectare, scored after 3 to 4 weeks. Format: in vivo. The method, then: (§2) 2. Weed plant herbicidal activity and crop plant tolerance, post-emergence Seeds of monocot and dicot weed plants and of crop plants are placed in sandy loam in cardboard pots, covered with soil, and grown under good growth conditions in a greenhouse. Two to three weeks after sowing, the experimental plants are treated at the three-leaf stage. The compounds of the invention, formulated as wettable powders or as emulsifiable concentrates, are sprayed at different dosages onto the surface of the green parts of the plants at an application rate of 600 to 800 l of water per ha (converted). After the experimental plants have stood in the greenhouse for 3 to 4 weeks under optimum growth conditions, the activity of the compounds is scored. […] At the same application rate this compound of the invention causes no damage to the crop plant Oryza sativa (rice) and 20% damage to Triticum aestivum (wheat).

Data set [14] relates to Digitaria sanguinalis. The data set can be described thus: Weed plant herbicidal activity, post-emergence. Format: in vivo. Conditions: three-leaf stage, 80 g of active substance per hectare, scored after 3 to 4 weeks. As for the experimental part:
as §2

Data set [15] concerns Matricaria inodora. Briefly: Weed plant herbicidal activity, post-emergence. In kind it is in vivo. Conditions: three-leaf stage, 80 g of active substance per hectare, scored after 3 to 4 weeks. The method, then: as §2
Data set [16] concerns Pharbitis purpureum. Briefly: Weed plant herbicidal activity, post-emergence. Format: in vivo. Conditions: three-leaf stage, 80 g of active substance per hectare, scored after 3 to 4 weeks. As for the experimental part: as §2
For data set [17], the system named is Veronica persica. Briefly: Weed plant herbicidal activity, post-emergence. Format: in vivo. The conditions noted are these: three-leaf stage, 80 g of active substance per hectare, scored after 3 to 4 weeks. As for the experimental part: as §2
The subject of data set [18] is Oryza sativa (rice). The data set can be described thus: Crop plant tolerance, post-emergence. Conditions: 80 g of active substance per hectare, 3 to 4 weeks. In kind it is in vivo. As for the experimental part:
as §2

Data set [19] concerns Triticum aestivum (wheat). The data set can be described thus: Crop plant tolerance, post-emergence. The conditions noted are these: 80 g of active substance per hectare, 3 to 4 weeks. Format: in vivo. The method, then:
as §2

Regarding `Cc1cnc(-n2cc(C(F)(F)F)cn2)nc1Oc1csc(C(F)(F)F)c1` [1.8, 5-methyl-2-(4-trifluoromethyl-1H-1-pyrazolyl)-4-(5-trifluoromethyl-3-thienyloxy)pyrimidine], the melting point is 94 to 96 °C.

With `COc1cnc(-n2cc(C(F)(F)F)cn2)nc1Oc1csc(C(F)(F)F)c1` [Example No. 1.22, 5-methoxy-2-(4-trifluoromethyl-1H-1-pyrazolyl)-4-(5-trifluoromethyl-3-thienyloxy)pyrimidine], the melting point fell in the range of 109 to 111 °C. Also, the “activity against Agropyrons repens” value in data set [1] is given as “at least 80%”. The “activity against Alopecurus myosuroides” value in [2] is “at least 80%”. Moreover, the “activity against Amaranthus retroflexus” value in data set [3] is “at least 80%”. For the same molecule, the “activity against Avena fatua” value in [4] was “at least 80%”. In addition, in data set [5], the “activity against Digitaria sanguinalis” value was “at least 80%”. The “activity against Galium aparine” value in data set [6] is “at least 80%”. Besides, the “activity against Lolium multiflorum” value in data set [7] is recorded as “at least 80%”. For the same molecule, in data set [8], the “activity against Setaria viridis” value is “at least 80%”. The “activity against Sorghum halepense” value in data set [9] is on record as “at least 80%”. Besides, the “activity against Veronica persica” value in [10] is on record as “at least 80%”. Further, the “damage to the crop plant Oryza sativa (rice)” value in data set [11] is “no damage”. The “damage to the crop plant Zea mays (maize)” value in [12] is “no damage”. Moreover, in data set [13], the “activity against Chenopodium album” value was “at least 90%”. In addition, in [14], the “activity against Digitaria sanguinalis” value is given as “at least 90%”. Moreover, in data set [15], the “activity against Matricaria inodora” value was “at least 90%”. Besides, in [16], the “activity against Pharbitis purpureum” value is recorded as “at least 90%”. Further, the “activity against Veronica persica” value in data set [17] is “at least 90%”. For the same molecule, the “damage to the crop plant Oryza sativa (rice)” value in [18] was “no damage”. The “damage to Triticum aestivum (wheat)” value in data set [19] was 20%.

These data come from US7022650B2, “4-trifluoromethylpyrazolyl-substituted pyridines and pyrimidines” (Bayer CropScience GmbH, priority 2002, dated 2006).
